Earlier results as cited in article PMC11982978, “Cancer hotspot mutations rewire ERK2 specificity by selective exclusion of docking interactions” (The Journal of Biological Chemistry, 2025).

Tested on: WT ERK2
Conditions: selective conditions (-His); hits Z > 3; average of three screens; cited from earlier work
From the text: Supplement mmc2.xlsx, sheet "WT Hits" | column: Z-score

AAGRRAAPYLVLTA [TFR2, D-site 14-mer in ELK1 Y2H prey]
Z-score (ES) of hit sequences, WT ERK2 Y2H screen: 3.19

AKRRIANLKIQLAK [WWC1, D-site 14-mer in ELK1 Y2H prey]
Z-score (ES) of hit sequences, WT ERK2 Y2H screen: 3.55

ALLRKINQVLLFLL [GLT8D2, D-site 14-mer in ELK1 Y2H prey]
Z-score (ES) of hit sequences, WT ERK2 Y2H screen: 5.93

ARGQRSVLQVPLPV [CRNKL1, D-site 14-mer in ELK1 Y2H prey]
Z-score (ES) of hit sequences, WT ERK2 Y2H screen: 4.21

CELPRRNCLLPFSN [NSD1, D-site 14-mer in ELK1 Y2H prey]
Z-score (ES) of hit sequences, WT ERK2 Y2H screen: 3.49

CKLKMKPRPIAILQ [TTN, D-site 14-mer in ELK1 Y2H prey]
Z-score (ES) of hit sequences, WT ERK2 Y2H screen: 7.96

DTPIRKKEELLFDD [FBF1, D-site 14-mer in ELK1 Y2H prey]
Z-score (ES) of hit sequences, WT ERK2 Y2H screen: 3.49

EEEFRKLTNVRIMK [PTPRE, D-site 14-mer in ELK1 Y2H prey]
Z-score (ES) of hit sequences, WT ERK2 Y2H screen: 8.60

EERKTKRPSLRLFG [PPARGC1A, D-site 14-mer in ELK1 Y2H prey]
Z-score (ES) of hit sequences, WT ERK2 Y2H screen: 4.99

EKIKVKSTEVEILE [MUM1, D-site 14-mer in ELK1 Y2H prey]
Z-score (ES) of hit sequences, WT ERK2 Y2H screen: 3.47

EKVKRKKNVLRLCC [PRAME, D-site 14-mer in ELK1 Y2H prey]
Z-score (ES) of hit sequences, WT ERK2 Y2H screen: 4.69

FTLKAKRPGLRLPD [FLRT1, D-site 14-mer in ELK1 Y2H prey]
Z-score (ES) of hit sequences, WT ERK2 Y2H screen: 4.42

GLTARRLLPLRLPP [MLYCD, D-site 14-mer in ELK1 Y2H prey]
Z-score (ES) of hit sequences, WT ERK2 Y2H screen: 14.29

GRPLRLPPPLRLLR [GNAS, D-site 14-mer in ELK1 Y2H prey]
Z-score (ES) of hit sequences, WT ERK2 Y2H screen: 3.08

HFRHKSQLRLHLRQ [BCL6, D-site 14-mer in ELK1 Y2H prey]
Z-score (ES) of hit sequences, WT ERK2 Y2H screen: 5.64

IFQRQRVDALLLDL [MED6, D-site 14-mer in ELK1 Y2H prey]
Z-score (ES) of hit sequences, WT ERK2 Y2H screen: 7.05

IKMKPKPRILSIKS [MAP9, D-site 14-mer in ELK1 Y2H prey]
Z-score (ES) of hit sequences, WT ERK2 Y2H screen: 3.08

IPKNRIHHKLVLPS [CENPC, D-site 14-mer in ELK1 Y2H prey]
Z-score (ES) of hit sequences, WT ERK2 Y2H screen: 3.05

ITKAIRDRLLFLRQ [NBAS, D-site 14-mer in ELK1 Y2H prey]
Z-score (ES) of hit sequences, WT ERK2 Y2H screen: 3.64

ITSKQRPRKLTLMG [MTOR, D-site 14-mer in ELK1 Y2H prey]
Z-score (ES) of hit sequences, WT ERK2 Y2H screen: 4.58

KCSRKKKPKLSLKA [L3MBTL3, D-site 14-mer in ELK1 Y2H prey]
Z-score (ES) of hit sequences, WT ERK2 Y2H screen: 10.66

KGKSKRKKDLRISC [MAP2K3, D-site 14-mer in ELK1 Y2H prey]
Z-score (ES) of hit sequences, WT ERK2 Y2H screen: 10.02

KGVKHRPPPIKLPS [SUPT20H, D-site 14-mer in ELK1 Y2H prey]
Z-score (ES) of hit sequences, WT ERK2 Y2H screen: 18.07

KKARGKPVRLRLSS [MELK, D-site 14-mer in ELK1 Y2H prey]
Z-score (ES) of hit sequences, WT ERK2 Y2H screen: 7.57

KKFRHRPEPLFIPP [TRERF1, D-site 14-mer in ELK1 Y2H prey]
Z-score (ES) of hit sequences, WT ERK2 Y2H screen: 19.05

KKGVKPKLVLNVTS [CMYA5, D-site 14-mer in ELK1 Y2H prey]
Z-score (ES) of hit sequences, WT ERK2 Y2H screen: 4.91

KKRKIPKLVLRINA [DENND2A, D-site 14-mer in ELK1 Y2H prey]
Z-score (ES) of hit sequences, WT ERK2 Y2H screen: 11.21

KKRKKKRLVINLSS [TTLL6, D-site 14-mer in ELK1 Y2H prey]
Z-score (ES) of hit sequences, WT ERK2 Y2H screen: 10.00

KKSRVPPPPILLSR [CFAP54, D-site 14-mer in ELK1 Y2H prey]
Z-score (ES) of hit sequences, WT ERK2 Y2H screen: 11.93

KKTRKLKIALALSD [PLCZ1, D-site 14-mer in ELK1 Y2H prey]
Z-score (ES) of hit sequences, WT ERK2 Y2H screen: 3.78

KLDKSPFVVVSVVG [TTC28, D-site 14-mer in ELK1 Y2H prey]
Z-score (ES) of hit sequences, WT ERK2 Y2H screen: 3.83

KPLKKKPTPVLLPQ [SEC63, D-site 14-mer in ELK1 Y2H prey]
Z-score (ES) of hit sequences, WT ERK2 Y2H screen: 3.34

KQGGRKPKPLWLSP [KIAA0556, D-site 14-mer in ELK1 Y2H prey]
Z-score (ES) of hit sequences, WT ERK2 Y2H screen: 4.98

KQRKLSPLRLSVSN [KMT2E, D-site 14-mer in ELK1 Y2H prey]
Z-score (ES) of hit sequences, WT ERK2 Y2H screen: 4.49

KRSKKNSLALSLTA [ESR1, D-site 14-mer in ELK1 Y2H prey]
Z-score (ES) of hit sequences, WT ERK2 Y2H screen: 5.11

KRWLRKPRPVSLFS [GTF3C1, D-site 14-mer in ELK1 Y2H prey]
Z-score (ES) of hit sequences, WT ERK2 Y2H screen: 5.35

KSRQKNPRSLCIQP [MTUS1, D-site 14-mer in ELK1 Y2H prey]
Z-score (ES) of hit sequences, WT ERK2 Y2H screen: 4.97

KTKRNKILKLKFPR [ATP8B1, D-site 14-mer in ELK1 Y2H prey]
Z-score (ES) of hit sequences, WT ERK2 Y2H screen: 3.62

KTQRLDVAKVCLGN [IFT140, D-site 14-mer in ELK1 Y2H prey]
Z-score (ES) of hit sequences, WT ERK2 Y2H screen: 4.26

LKQRRRAQKLHFLQ [DDX54, D-site 14-mer in ELK1 Y2H prey]
Z-score (ES) of hit sequences, WT ERK2 Y2H screen: 3.41

LKQRTRPLLINLSK [MCTP2, D-site 14-mer in ELK1 Y2H prey]
Z-score (ES) of hit sequences, WT ERK2 Y2H screen: 3.77

LQRKGGPTRLTLPS [CMIP, D-site 14-mer in ELK1 Y2H prey]
Z-score (ES) of hit sequences, WT ERK2 Y2H screen: 4.12

LRKKPDLSPLKLTI [TTC41P, D-site 14-mer in ELK1 Y2H prey]
Z-score (ES) of hit sequences, WT ERK2 Y2H screen: 5.81

LRPLRPKPPLLLPK [RREB1, D-site 14-mer in ELK1 Y2H prey]
Z-score (ES) of hit sequences, WT ERK2 Y2H screen: 9.18

LRVRKARPQLILSR [NOL9, D-site 14-mer in ELK1 Y2H prey]
Z-score (ES) of hit sequences, WT ERK2 Y2H screen: 4.35

MQKKIKIPKLSLNH [BEND5, D-site 14-mer in ELK1 Y2H prey]
Z-score (ES) of hit sequences, WT ERK2 Y2H screen: 3.94

NGRREKRKQLTLPS [TBX2, D-site 14-mer in ELK1 Y2H prey]
Z-score (ES) of hit sequences, WT ERK2 Y2H screen: 10.21

NKSLKNQHGLTLQL [ZNF534, D-site 14-mer in ELK1 Y2H prey]
Z-score (ES) of hit sequences, WT ERK2 Y2H screen: 12.39

NQKKPALKKLTLLP [IWS1, D-site 14-mer in ELK1 Y2H prey]
Z-score (ES) of hit sequences, WT ERK2 Y2H screen: 4.19

PDGKKRRKVLALPS [RBM28, D-site 14-mer in ELK1 Y2H prey]
Z-score (ES) of hit sequences, WT ERK2 Y2H screen: 5.03

PDRKAKPTPLDLRN [GAB2, D-site 14-mer in ELK1 Y2H prey]
Z-score (ES) of hit sequences, WT ERK2 Y2H screen: 7.63

PDRKVKPAPLEIKP [GAB1, D-site 14-mer in ELK1 Y2H prey]
Z-score (ES) of hit sequences, WT ERK2 Y2H screen: 10.25

PFGSRRSSAIGIEN [RAP1GAP, D-site 14-mer in ELK1 Y2H prey]
Z-score (ES) of hit sequences, WT ERK2 Y2H screen: 5.61

PGKRGRPRKLKLCK [MGA, D-site 14-mer in ELK1 Y2H prey]
Z-score (ES) of hit sequences, WT ERK2 Y2H screen: 8.03

PGRRQNTIVVKVPG [BANP, D-site 14-mer in ELK1 Y2H prey]
Z-score (ES) of hit sequences, WT ERK2 Y2H screen: 5.25

PIKQKRKLRIFISN [SMARCD1, D-site 14-mer in ELK1 Y2H prey]
Z-score (ES) of hit sequences, WT ERK2 Y2H screen: 4.04

PKDKKRPTPLEIGY [PCLO, D-site 14-mer in ELK1 Y2H prey]
Z-score (ES) of hit sequences, WT ERK2 Y2H screen: 4.93

PKGKNRPSSLNLDP [ARHGAP31, D-site 14-mer in ELK1 Y2H prey]
Z-score (ES) of hit sequences, WT ERK2 Y2H screen: 3.62

PKRKEPGRSLRIKV [DNAJC27, D-site 14-mer in ELK1 Y2H prey]
Z-score (ES) of hit sequences, WT ERK2 Y2H screen: 6.00

PLPRRTRRPLLLPR [HPS4, D-site 14-mer in ELK1 Y2H prey]
Z-score (ES) of hit sequences, WT ERK2 Y2H screen: 7.88

PMKQKRKLRLYISN [SMARCD3, D-site 14-mer in ELK1 Y2H prey]
Z-score (ES) of hit sequences, WT ERK2 Y2H screen: 6.57

PPVKKKPKLLNLKD [SIN3A, D-site 14-mer in ELK1 Y2H prey]
Z-score (ES) of hit sequences, WT ERK2 Y2H screen: 4.29

PTKTKPKKLLFLGS [SMG1, D-site 14-mer in ELK1 Y2H prey]
Z-score (ES) of hit sequences, WT ERK2 Y2H screen: 3.46

PWRTTKPQPLVLSQ [PROX2, D-site 14-mer in ELK1 Y2H prey]
Z-score (ES) of hit sequences, WT ERK2 Y2H screen: 3.19

QGKTKRPVDLKIKN [TAGAP, D-site 14-mer in ELK1 Y2H prey]
Z-score (ES) of hit sequences, WT ERK2 Y2H screen: 3.38

QLPPRKLPTLKLTP [MTX3, D-site 14-mer in ELK1 Y2H prey]
Z-score (ES) of hit sequences, WT ERK2 Y2H screen: 3.25

QVKLRSRTSLTLPR [RGL1, D-site 14-mer in ELK1 Y2H prey]
Z-score (ES) of hit sequences, WT ERK2 Y2H screen: 4.63

QVPKKAWRKLKLPG [DCAF11, D-site 14-mer in ELK1 Y2H prey]
Z-score (ES) of hit sequences, WT ERK2 Y2H screen: 5.07

RKARRLEPGLLLPG [SOX18, D-site 14-mer in ELK1 Y2H prey]
Z-score (ES) of hit sequences, WT ERK2 Y2H screen: 7.78

RKEVKRKKVVHMNK [RNF151, D-site 14-mer in ELK1 Y2H prey]
Z-score (ES) of hit sequences, WT ERK2 Y2H screen: 6.59

RKKDRPRKHLTLNN [SP100, D-site 14-mer in ELK1 Y2H prey]
Z-score (ES) of hit sequences, WT ERK2 Y2H screen: 3.83

RKKKLTMRPLVLQK [MAP3K19, D-site 14-mer in ELK1 Y2H prey]
Z-score (ES) of hit sequences, WT ERK2 Y2H screen: 3.59

RKPRSPPRALVLPH [PEG10, D-site 14-mer in ELK1 Y2H prey]
Z-score (ES) of hit sequences, WT ERK2 Y2H screen: 3.94

RKRSKPKLKLKIIN [KMT2C, D-site 14-mer in ELK1 Y2H prey]
Z-score (ES) of hit sequences, WT ERK2 Y2H screen: 17.15

RKTKKKKSHLSLVG [ATXN7L3, D-site 14-mer in ELK1 Y2H prey]
Z-score (ES) of hit sequences, WT ERK2 Y2H screen: 3.39

RLQSRKPPNLSITI [RHBDF2, D-site 14-mer in ELK1 Y2H prey]
Z-score (ES) of hit sequences, WT ERK2 Y2H screen: 20.42

RPRCRRQPRLRLPT [EPM2A, D-site 14-mer in ELK1 Y2H prey]
Z-score (ES) of hit sequences, WT ERK2 Y2H screen: 13.05

RQKKERPHMLNLSG [SYDE2, D-site 14-mer in ELK1 Y2H prey]
Z-score (ES) of hit sequences, WT ERK2 Y2H screen: 5.14

RRQHRPPALLTLYP [DOCK6, D-site 14-mer in ELK1 Y2H prey]
Z-score (ES) of hit sequences, WT ERK2 Y2H screen: 3.71

RRRGTRPPLLALLA [ROR1, D-site 14-mer in ELK1 Y2H prey]
Z-score (ES) of hit sequences, WT ERK2 Y2H screen: 4.89
